biological target: T1, Recombinant human JAK2 kinase domain protein (Residues 812-1132) (Homo sapiens, UniProt O60674); assay: JAK2 biochemical assay (microfluidic mobility shift, peptide phosphorylation); conditions: 25 μM ATP, 0.2 nM total JAK2; Ki calculated from Ki app (tight-binding, competitive); read-out: Biochem JAK2 Ki
T1 construct: human JAK2 kinase domain protein (Residues 812-1132); made in house; host or cells: insect cells
Outline: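 Insect-cell-expressed human JAK1 (1 nM, residues 854-1154) or JAK2 (0.2 nM, residues 812-1132) phosphorylating 1.5 μM 5-FAM peptide Y-1B with 25 μM ATP, pH 7.2 HEPES, 30 min at 22-23 °C; twelve concentrations up to 1000 nM in duplicate. Mobility-shift % conversion fitted to tight-binding quadratic for Ki^app.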

T1 sequence (O60674 812-1132): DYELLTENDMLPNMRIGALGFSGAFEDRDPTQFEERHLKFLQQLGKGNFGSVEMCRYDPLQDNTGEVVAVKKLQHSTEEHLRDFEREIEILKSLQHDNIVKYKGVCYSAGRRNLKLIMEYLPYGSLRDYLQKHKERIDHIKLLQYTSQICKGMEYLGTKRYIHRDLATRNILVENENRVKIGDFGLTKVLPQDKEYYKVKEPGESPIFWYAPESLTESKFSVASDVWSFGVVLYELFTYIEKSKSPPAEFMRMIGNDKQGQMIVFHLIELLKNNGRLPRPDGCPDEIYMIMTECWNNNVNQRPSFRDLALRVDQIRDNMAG

| Compound | Ki [nM] |
| --- | --- |
| O=C(Nc1cn(Cc2nnn(C3CCNC3)n2)nc1-c1cc(OC(F)F)ccc1OC(F)F)c1cnn2cccnc12 (single isomer, unassigned) [Example 28, N-[3-[2,5-bis(difluoromethoxy)phenyl]-1-[(2-pyrrolidin-3-yltetrazol-5-yl)methyl]pyrazol-4-yl]pyrazolo[1,5-a]pyrimidine-3-carboxamide] | 0.36 |
| CNCCn1nnc(Cn2cc(NC(=O)c3cnn4cccnc34)c(-c3cc(OC(F)F)ccc3OC(F)F)n2)n1 [Example 20, N-[3-[2,5-bis(difluoromethoxy)phenyl]-1-[[2-[2-(methylamino)ethyl]tetrazol-5-yl]methyl]pyrazol-4-yl]pyrazolo[1,5-a]pyrimidine-3-carboxamide] | 0.46 |
| O=C(Nc1cn(Cc2nnn(C3CCNCC3)n2)nc1-c1cc(OC(F)F)ccc1OC(F)F)c1cnn2cccnc12 [Example 18, N-[3-[2,5-bis(difluoromethoxy)phenyl]-1-[[2-(4-piperidyl)tetrazol-5-yl]methyl]pyrazol-4-yl]pyrazolo[1,5-a]pyrimidine-3-carboxamide] | 0.43 |
| CN(C)CCn1nnnc1Cn1cc(NC(=O)c2cnn3cccnc23)c(-c2cc(OC(F)F)ccc2OC(F)F)n1 [Example 17, N-[3-[2,5-bis(difluoromethoxy)phenyl]-1-[[1-[2-(dimethylamino)ethyl]tetrazol-5-yl]methyl]pyrazol-4-yl]pyrazolo[1,5-a]pyrimidine-3-carboxamide] | 0.23 |
| CN1CCC(N2CC(n3nnc(Cn4cc(NC(=O)c5cnn6cccnc56)c(-c5cc(OC(F)F)ccc5OC(F)F)n4)n3)C2)CC1 [Example 38, N-[3-[2,5-bis(difluoromethoxy)phenyl]-1-[[2-[1-(1-methyl-4-piperidyl)azetidin-3-yl]tetrazol-5-yl]methyl]pyrazol-4-yl]pyrazolo[1,5-a]pyrimidine-3-carboxamide] | 0.44 |
| CSc1ccc(OC(F)F)c(-c2nn(Cc3nnn(C4CN(CCCN(C)C)C4)n3)cc2NC(=O)c2cnn3cccnc23)c1 [Example 58, N-[3-[2-(difluoromethoxy)-5-methylsulfanyl-phenyl]-1-[[2-[1-[3-(dimethylamino)propyl]azetidin-3-yl]tetrazol-5-yl]methyl]pyrazol-4-yl]pyrazolo[1,5-a]pyrimidine-3-carboxamide] | 0.38 |
| CN1CC(n2nnc(Cn3cc(NC(=O)c4cnn5cccnc45)c(-c4cc(OC(F)F)ccc4OC(F)F)n3)n2)C1 [Example 10, N-[3-[2,5-bis(difluoromethoxy)phenyl]-1-[[2-(1-methylazetidin-3-yl)tetrazol-5-yl]methyl]pyrazol-4-yl]pyrazolo[1,5-a]pyrimidine-3-carboxamide] | 0.24 |
| CN(CCN1CC(n2nnc(Cn3cc(NC(=O)c4cnn5cccnc45)c(-c4cc(OC(F)F)ccc4OC(F)F)n3)n2)C1)C(=O)OC(C)(C)C [Example 31, tert-butyl N-[2-[3-[5-[[3-[2,5-bis(difluoromethoxy)phenyl]-4-(pyrazolo[1,5-a]pyrimidine-3-carbonylamino)pyrazol-1-yl]methyl]tetrazol-2-yl]azetidin-1-yl]ethyl]-N-methyl-carbamate] | 0.25 |
| CN(C)CCN1CC(n2nnc(Cn3cc(NC(=O)c4cnn5cccnc45)c(-c4cc(OC(F)F)ccc4OC(F)F)n3)n2)C1 [Example 21, N-[3-[2,5-bis(difluoromethoxy)phenyl]-1-[[2-[1-[2-(dimethylamino)ethyl]azetidin-3-yl]tetrazol-5-yl]methyl]pyrazol-4-yl]pyrazolo[1,5-a]pyrimidine-3-carboxamide] | 0.39 |
| CN1CCC(n2nnc(Cn3cc(NC(=O)c4cnn5cccnc45)c(-c4cc(OC(F)F)ccc4OC(F)F)n3)n2)CC1 [Example 22] | 0.3 |
| CN1CC(n2nnc(Cn3cc(NC(=O)c4cnn5cccnc45)c(-c4cc(Cl)ccc4OC(F)F)n3)n2)C1 [Example 7, N-[3-[5-chloro-2-(difluoromethoxy)phenyl]-1-[[2-(1-methylazetidin-3-yl)tetrazol-5-yl]methyl]pyrazol-4-yl]pyrazolo[1,5-a]pyrimidine-3-carboxamide] | 0.17 |
| CN(C)[C@H]1C[C@H](N2CC(n3nnc(Cn4cc(NC(=O)c5cnn6cccnc56)c(-c5cc(OC(F)F)ccc5OC(F)F)n4)n3)C2)C1 [Example 70, N-[3-[2,5-bis(difluoromethoxy)phenyl]-1-[[2-[1-[3-(dimethylamino)cyclobutyl]azetidin-3-yl]tetrazol-5-yl]methyl]pyrazol-4-yl]pyrazolo[1,5-a]pyrimidine-3-carboxamide] | 0.54 |
| O=C(Nc1cn(Cc2nnnn2C2CNC2)nc1-c1cc(OC(F)F)ccc1OC(F)F)c1cnn2cccnc12 [Example 12, N-[1-[[1-(azetidin-3-yl)tetrazol-5-yl]methyl]-3-[2,5-bis(difluoromethoxy)phenyl]pyrazol-4-yl]pyrazolo[1,5-a]pyrimidine-3-carboxamide] | 0.18 |
| CN1CCC(n2nnnc2Cn2cc(NC(=O)c3cnn4cccnc34)c(-c3cc(OC(F)F)ccc3OC(F)F)n2)C1 (centres unmarked) [Example 26, N-[3-[2,5-bis(difluoromethoxy)phenyl]-1-[[1-(1-methylpyrrolidin-3-yl)tetrazol-5-yl]methyl]pyrazol-4-yl]pyrazolo[1,5-a]pyrimidine-3-carboxamide] | 0.39 |
| CN1CC(N2CC(n3nnc(Cn4cc(NC(=O)c5cnn6cccnc56)c(-c5cc(OC(F)F)ccc5OC(F)F)n4)n3)C2)C1 [Example 78, N-[3-[2,5-bis(difluoromethoxy)phenyl]-1-[[2-[1-(1-methylazetidin-3-yl)azetidin-3-yl]tetrazol-5-yl]methyl]pyrazol-4-yl]pyrazolo[1,5-a]pyrimidine-3-carboxamide; formic acid] | 0.41 |
| O=C(Nc1cn(Cc2nnn(C3CNC3)n2)nc1-c1cc(Cl)ccc1OC(F)F)c1cnn2cccnc12 [Example 8, N-[1-[[2-(azetidin-3-yl)tetrazol-5-yl]methyl]-3-[5-chloro-2-(difluoromethoxy)phenyl]pyrazol-4-yl]pyrazolo[1,5-a]pyrimidine-3-carboxamide] | 0.28 |
| CN(C)CCN1CC(n2nnc(Cn3cc(NC(=O)c4cnn5cccnc45)c(-c4cc(Cl)ccc4OC(F)F)n3)n2)C1 [Example 37, N-[3-[5-chloro-2-(difluoromethoxy)phenyl]-1-[[2-[1-[2-(dimethylamino)ethyl]azetidin-3-yl]tetrazol-5-yl]methyl]pyrazol-4-yl]pyrazolo[1,5-a]pyrimidine-3-carboxamide] | 0.36 |
| CN1CC(n2nnnc2Cn2cc(NC(=O)c3cnn4cccnc34)c(-c3cc(Cl)ccc3OC(F)F)n2)C1 [Example 15, N-[3-[5-chloro-2-(difluoromethoxy)phenyl]-1-[[1-(1-methylazetidin-3-yl)tetrazol-5-yl]methyl]pyrazol-4-yl]pyrazolo[1,5-a]pyrimidine-3-carboxamide] | 0.092 |
| NCCn1nnc(Cn2cc(NC(=O)c3cnn4cccnc34)c(-c3cc(OC(F)F)ccc3OC(F)F)n2)n1 [Example 13, N-[1-[[2-(2-aminoethyl)tetrazol-5-yl]methyl]-3-[2,5-bis(difluoromethoxy)phenyl]pyrazol-4-yl]pyrazolo[1,5-a]pyrimidine-3-carboxamide] | 0.16 |
| CNCCn1nnnc1Cn1cc(NC(=O)c2cnn3cccnc23)c(-c2cc(OC(F)F)ccc2OC(F)F)n1 [Example 19, N-[3-[2,5-bis(difluoromethoxy)phenyl]-1-[[1-[2-(methylamino)ethyl]tetrazol-5-yl]methyl]pyrazol-4-yl]pyrazolo[1,5-a]pyrimidine-3-carboxamide] | 0.15 |

Reference: patent US12247032B2, “Substituted pyrazolo[1,5-a]pyrimidines as inhibitors of JAK kinases” (Genentech, Inc., priority 2019, dated 2025)
